This note sets out measurements from patent US20130040813A1 (priority 2010, published 2013).

Holding throughout (assay type): cell-based
One assay concerns Phytophthora infestans. The settings on record: single compound, 7 days.
The next assay deals with Pyricularia oryzae. As to the kind of experiment: microbe, parasite or virus in culture.
The subject of the next assay is Botrytis cinerea. As to the kind of experiment: Microtest: activity against the grey mold pathogen Botrytis cinerea. Conditions: single compound, 7 days; for inhibition of growth at 1 ppm / inhibition of growth at 4 ppm / inhibition of growth at 0.25 ppm: Botrytis cinerea, 168 h, read-out: Observed efficacy.
The subject of another assay is Septoria tritici. Briefly: Microtest: activity against the wheat leaf blotch pathogen Septoria tritici. Conditions: single compound, 7 days.
The subject of a further assay is Alternaria solani. Briefly: Microtest: activity against the early blight pathogen Alternaria solani. Conditions: single compound, 7 days.
The mark [1] stands for this setting: Pyricularia oryzae, 168 h, read-out: Observed efficacy.
The mark [2] stands for this setting: Zymoseptoria tritici, 168 h, 0.063 ppm, read-out: Observed efficacy.
Setting [3] is: Zymoseptoria tritici, 168 h, 0.25 ppm, read-out: Observed efficacy.
The mark [4] stands for this setting: Zymoseptoria tritici, 168 h, read-out: Observed efficacy.

Read-outs that look alike come from different tables or passages of the source.

As for `Fc1ccc(F)c2c(NCCc3ccc(Oc4cc(C(F)(F)F)ccn4)cc3)ncnc12` [Compound I-5, (5,8-Difluoro-quinazolin-4-yl)-{2-[4-(4-trifluoromethyl-pyridin-2-yloxy)-phenyl]-ethyl}-amine], the Observed efficacy in the assay on Phytophthora infestans (1 ppm) is listed as 49%; in the assay on Alternaria solani (0.25 ppm), 37%; with Alternaria solani (1 ppm), 38%. Also, the inhibition of growth at 0.016 ppm with Pyricularia oryzae (setting [1]) amounted to 36%. Further, the figures for the inhibition of growth at 0.063 ppm with Pyricularia oryzae (setting [1]) and in the assay on Septoria tritici (setting [2]) were 54% and 37%, respectively. In addition, the inhibition of growth at 0.25 ppm in the assay on Pyricularia oryzae (setting [1]) was determined as 59%; with Septoria tritici (setting [3]), 40%. Besides, the inhibition of growth at 1 ppm in the assay with Botrytis cinerea is 14%. Further, the inhibition of growth at 4 ppm with Botrytis cinerea is 22%.

As to `Fc1ccc(F)c2c(NCCc3ccc(Oc4cc(C(F)(F)F)ncn4)cc3)ncnc12` [Compound I-3, (5,8-Difluoro-quinazolin-4-yl)-{2-[4-(6-trifluoromethyl-pyrimidin-4-yloxy)-phenyl]-ethyl}-amine], the Observed efficacy with Phytophthora infestans (1 ppm) is 47%; with Alternaria solani (0.25 ppm), 38%; in the assay on Alternaria solani (1 ppm), 35%. Besides, the inhibition of growth at 0.016 ppm with Pyricularia oryzae (setting [1]) was determined as 34%. For the same compound, the inhibition of growth at 0.063 ppm in the assay with Pyricularia oryzae (setting [1]) was determined as 45%; in the assay with Septoria tritici (setting [2]) it was 30%. Further, the results for the inhibition of growth at 0.25 ppm in the assay with Pyricularia oryzae (setting [1]) and in the assay on Septoria tritici (setting [3]) were 43% and 33%, respectively. Moreover, the inhibition of growth at 4 ppm in the assay with Pyricularia oryzae (setting [1]) amounted to 72%; in the assay on Botrytis cinerea, 35%. Also, the inhibition of growth at 1 ppm in the assay with Botrytis cinerea turned out to be 22%.

As for `COc1cc(CCNc2ncnc3c(F)ccc(F)c23)ccc1Oc1cc(C(F)(F)F)ccn1` [Compound I-18, (5,8-Difluoro-quinazolin-4-yl)-{2-[4-(4-trifluoromethyl-pyridin-2-yloxy)-3-methoxy-phenyl]-ethyl}-amine], the figures for the Observed efficacy with Phytophthora infestans (1 ppm), in the assay on Alternaria solani (0.25 ppm) and in the assay with Alternaria solani (1 ppm) were 50%, 43% and 44%, respectively. Besides, the inhibition of growth at 0.016 ppm in the assay on Pyricularia oryzae (setting [1]) stood at 41%. In addition, the inhibition of growth at 0.063 ppm with Pyricularia oryzae (setting [1]) was 49%; in the assay with Septoria tritici (setting [2]), 41%. In addition, the inhibition of growth at 0.25 ppm in the assay on Pyricularia oryzae (setting [1]) came to 54%; in the assay on Septoria tritici (setting [3]), 44%. Also, the values for the inhibition of growth at 1 ppm in the assay on Botrytis cinerea and with Septoria tritici (setting [4]) were 11% and 44%, respectively. For the same compound, the inhibition of growth at 4 ppm in the assay on Botrytis cinerea came out at 24%.

For `CO/C=C(/C(=O)OC)c1ccccc1Oc1cc(Oc2ccccc2C#N)ncn1` [II-1, Azoxystrobin, reference compound], the Observed efficacy is given as 12% with Pyricularia oryzae (0.004 ppm, single compound, 7 days); 12% in the assay with Botrytis cinerea (0.25 ppm); 54% in the assay with Septoria tritici (0.063 ppm); 73% in the assay with Septoria tritici (0.25 ppm).

With `COc1cc(CCNc2ncnc3c(F)ccc(F)c23)ccc1Oc1ncc(C(F)(F)F)cc1Cl` [Compound I-17, (5,8-Difluoro-quinazolin-4-yl)-{2-[4-(3-chloro-5-trifluoromethyl-pyridin-2-yloxy)-3-methoxy-phenyl]-ethyl}-amine], the values for the Observed efficacy in the assay with Phytophthora infestans (1 ppm) and in the assay with Alternaria solani (1 ppm) were 42% and 26%, respectively. Also, the inhibition of growth at 0.063 ppm with Pyricularia oryzae (setting [1]) is 14%. Besides, the inhibition of growth at 0.25 ppm in the assay on Pyricularia oryzae (setting [1]) is 36%; with Septoria tritici (setting [3]), 30%. For the same compound, the inhibition of growth at 4 ppm in the assay on Pyricularia oryzae (setting [1]) turned out to be 69%; in the assay on Botrytis cinerea, 11%. For the same compound, the inhibition of growth at 1 ppm in the assay on Botrytis cinerea was found to be 4%; in the assay with Septoria tritici (setting [4]) it was 33%.

On to `CC(C)CC(C)c1sccc1NC(=O)c1cn(C)nc1C(F)(F)F` (stereo not shown) [II-10, Penthiopyrad, reference compound], for which the inhibition of growth at 0.016 ppm in the assay with Septoria tritici (Zymoseptoria tritici, 168 h, 0.016 ppm, read-out: Observed efficacy) was 30%.

For `COc1cc(CCNc2ncnc3c(F)cc(F)c(F)c23)ccc1Oc1cc(C(F)(F)F)ccn1` [Compound I-19, (5,6,8-Trifluoro-quinazolin-4-yl)-{2-[4-(4-trifluoromethyl-pyridin-2-yloxy)-3-methoxy-phenyl]-ethyl}-amine], the Observed efficacy turned out to be 47% in the assay with Phytophthora infestans (1 ppm) and 40% with Alternaria solani (1 ppm). For the same compound, in the assay on Pyricularia oryzae (setting [1]), the inhibition of growth at 0.016 ppm worked out at 29%. In addition, the inhibition of growth at 0.063 ppm is 51% in the assay on Pyricularia oryzae (setting [1]) and 40% with Septoria tritici (setting [2]). Moreover, in the assay with Pyricularia oryzae (setting [1]), the inhibition of growth at 0.25 ppm came out at 53%. For the same compound, the values for the inhibition of growth at 4 ppm in the assay with Pyricularia oryzae (setting [1]) and in the assay on Botrytis cinerea were 71% and 15%, respectively. Also, the inhibition of growth at 1 ppm worked out at 12% with Botrytis cinerea and 41% with Septoria tritici (setting [4]).

As to `COC(=O)N(OC)c1ccccc1COc1ccn(-c2ccc(Cl)cc2)n1` [II-14, Pyraclostrobin, reference compound], the Observed efficacy with Phytophthora infestans (0.063 ppm) is on record as 25%; in the assay on Alternaria solani (0.016 ppm) it was 34%. Further, the values for the inhibition of growth at 0.004 ppm in the assay with Pyricularia oryzae (setting [1]) and in the assay on Septoria tritici (setting [4]) were 39% and 50%, respectively. For the same compound, in the assay with Botrytis cinerea (0.25 ppm), the inhibition of growth at 0.25 ppm turned out to be 20%.

On to `N#Cc1c(Cl)c(Cl)c(Cl)c(C#N)c1Cl` [II-3, Chlorothalonil, reference compound], for which, in the assay on Botrytis cinerea, the inhibition of growth at 1 ppm worked out at 66%.

For `CON=C(C(=O)OC)c1ccccc1CON=C(C)c1cccc(C(F)(F)F)c1` [II-17, Trifloxystrobin, reference compound], in the assay on Pyricularia oryzae (setting [1]), the inhibition of growth at 0.016 ppm amounted to 24%. Besides, the inhibition of growth at 0.25 ppm with Botrytis cinerea (0.25 ppm) was 19%. The inhibition of growth at 0.004 ppm in the assay with Septoria tritici (setting [4]) was found to be 40%. This compound gave an Observed efficacy with Alternaria solani (0.063 ppm) of 48%.

For the compound `Fc1ccc([C@]2(Cn3cncn3)O[C@H]2c2ccccc2Cl)cc1` (racemic) [II-4, Epoxiconazole, reference compound], the inhibition of growth at 0.25 ppm with Botrytis cinerea (0.25 ppm) turned out to be 40%.

Consider `Fc1ccc(Oc2ccnc3cc(Cl)cc(Cl)c23)cc1` [II-15, Quinoxyfen, reference compound], for which the inhibition of growth at 16 ppm with Pyricularia oryzae (setting [1]) turned out to be 9%. Also, the inhibition of growth at 1 ppm in the assay with Septoria tritici (setting [4]) was found to be 10%.

In the assay on Septoria tritici (0.063 ppm), `Cn1cc(C(=O)Nc2ccc(F)cc2-c2ccc(Cl)c(Cl)c2)c(C(F)F)n1` [II-2, Bixafen, reference compound] registered an Observed efficacy of 40%.
